Assay results from patent publication US10064858B2, “Methods and compositions for treating bacterial infections with iron chelators” (THE UNITED STATES OF AMERICA, AS REPRESENTED BY THE …, priority 2011, dated 2018).
“Also recorded” adds a separate entry of the source.

Columns and labels:
[1] = system: AB5711; assay: Effect of VK28 on the activity of antibiotics (OD600); assay type: cell-based, A. baumannii; settings: 50 μM VK28; 30 antibiotics
Experimental: In some aspects of the present invention, one or more iron chelators (for example Compound 4, VK28, or its analogs or derivatives, or Apo6619) may be used in a composition or method for treating a bacterial infection with one or more antibiotics. […] Methods and compositions comprising one or more iron chelators with one or more of each of the foregoing antibiotics are hereby disclosed.
In this example, culture of AB5711 was grown overnight in LB media at 37° C. and diluted 1:100 into Media A. Cells were allowed to grow for 4 hours at 37 in 96-well plates and were then treated with antibiotics with or without 50 μM VK28. Cells were then allowed to shake for an additional 20 hours, and OD600 measurements were taken.

[2] = system: AB5075, a stain of A. baumannii (Ab); assay: Development of rifampin resistance over 7 days (OD600); assay type: cell-based; settings: ApoL1 in combination with rifampin; 7 days
Experimental: Development of antibiotic-resistant strains is an ongoing problem in the treatment of bacterial infections. In some embodiments, the present technology provides methods and compositions for reducing, inhibiting or preventing formation of antibiotic-resistant bacterial strains. In some embodiments, the iron chelator of the present technology is administered to a patient as a prophylactic before antibiotic treatment or during antibiotic treatment. In some embodiments, the iron chelator is added concurrently with an antibiotic.
Cultures of AB5075, a stain of A. baumannii (Ab), was cultured in the presence of Rifampin alone, the iron chelator ApoL1 alone or Rifampin combination with ApoL1 for 7 days.

SMILES | inhibition of the activity of antibiotics by VK28 [1] | growth of rifampin-resistant strains [2]
OCCN1CCN(Cc2ccc(O)c3ncccc23)CC1 [VK28, 5-(4-(2-hydroxyethyl)piperazin-1-ylmethyl)-8-hydroxyquinoline] | only inhibited the activity of one antibiotic, namely thiamphenicol; also recorded: not shown to inhibit the activity of the antibiotics with the exception of Thiaphenicol | 
Cc1c(O)c(=O)ccn1C [ApoL1, 3-hydroxy-1,2-dimethyl-4(1H)-pyridone] |  | inhibits growth of an antibiotic resistant Ab strain over 7 days; also recorded: inhibition of rifampin-resistant strains of Ab over the 7 days
